Data published in publication PMC4623604, “Discovery of Small Molecules that Inhibit the Disordered Protein, p27^Kip1” (Scientific Reports, 2015).

How the values were obtained:
[1] = system: p27-KID mutants; experiment: 2D NMR binding mapping with p27-KID mutants; parameters: species or system human
Description: (§1) (Fig. 7a–c); these interaction sites are all within the Cdk2-binding D2 sub-domain. […] In fact, sub-domain D2 contains eight of the nine aromatic amino acids found within p27; a ninth, F33, is found within sub-domain D1 but […] to small molecules. Group 1 molecules caused the largest CSPs for residues F87, Y88 and Y89 within sub-region D2.3 and Group 2 molecules perturbed resonances for these residues as well as for residues W60, N61 (sub-region D2.1) and E75, W76 and Q77 (sub-region D2.2).
(§2) The p27 constructs were expressed in E. Coli with an N-terminal 6xHis affinity tag after sub-cloning into pET28a (Novagen) using established procedures. […]
(§3) Screening and validation NMR experiments were performed at 298 K (25 °C) using either a Varian Inova 600 MHz spectrometer equipped with a triple resonance (HCN) room temperature gradient probe or a Bruker Avance 600 MHz spectrometer equipped with TCI cryogenic gradient probe and a SampleJet sample changer. Fragment molecules were initially analyzed as pools of five molecules dissolved at 10 mM each in DMSO-D6. […] NMR spectra were recorded for compound pools without and with protein. […] 2D ^1H-^15N TROSY-HSQC NMR experiments with ^2H/^13C/^15N-p27-D2/Cdk2/cyclin A and SJ403 have been recorded at 308 K (35 °C). […] NMR spectra were processed using Bruker Topspin software and analyzed using computer-aided resonance assignment (CARA) software.

[2] = target: T1, p27-KID mutants (Homo sapiens, UniProt P46527, Y88A); experiment: 2D NMR binding mapping with p27-KID mutants
T1 construct: 6xHis (N, cleaved yes); made in house; host or cells: E. coli (pET28a)
Description: as §1, §2, §3

T1 sequence (P46527 22-105 Y88A): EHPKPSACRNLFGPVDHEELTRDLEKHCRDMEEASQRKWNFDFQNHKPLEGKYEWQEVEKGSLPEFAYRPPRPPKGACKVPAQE

## CCn1c(C)c(C)n2c3c(=O)n(C)c(=O)n(C)c3nc12 [SJ403]
[1]
  CSPs with doubly mutated p27-KID variants (W60A-W76A, W60F-W76F): only very weak CSPs within the F87YY89 aromatic cluster
[2]
  CSPs with Y88 to A p27-KID mutant: caused CSPs near the two W residues (W60 or W76) but not within the F87A88Y89 region
